target: T1, GST-Xa-hAAK1 (Homo sapiens, UniProt Q2M2I8); assay: AAK1 Kinase Assay; format: biochemical; settings: bacterially expressed GST-Xa-hAAK1 3.5 nM; ATP 22 μM; fluoresceinated peptide 1.5 μM; 3 hours at room temperature; Caliper LabChip 3000
T1 construct: GST (N); Factor Xa cleavage site (Xa) (internal); made in house
Method in brief: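 Bacterially expressed GST-Xa-hAAK1 (3.5 nM) phosphorylated 1.5 μM 5-FAM peptide with 22 μM ATP in Tris pH 7.4, MgCl2, DTT, 1.6% DMSO, 3 h at room temperature. EDTA-stopped; product separated electrophoretically on Caliper LabChip. IC50 from eleven concentrations by non-linear regression.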

T1 sequence (Q2M2I8 whole entry): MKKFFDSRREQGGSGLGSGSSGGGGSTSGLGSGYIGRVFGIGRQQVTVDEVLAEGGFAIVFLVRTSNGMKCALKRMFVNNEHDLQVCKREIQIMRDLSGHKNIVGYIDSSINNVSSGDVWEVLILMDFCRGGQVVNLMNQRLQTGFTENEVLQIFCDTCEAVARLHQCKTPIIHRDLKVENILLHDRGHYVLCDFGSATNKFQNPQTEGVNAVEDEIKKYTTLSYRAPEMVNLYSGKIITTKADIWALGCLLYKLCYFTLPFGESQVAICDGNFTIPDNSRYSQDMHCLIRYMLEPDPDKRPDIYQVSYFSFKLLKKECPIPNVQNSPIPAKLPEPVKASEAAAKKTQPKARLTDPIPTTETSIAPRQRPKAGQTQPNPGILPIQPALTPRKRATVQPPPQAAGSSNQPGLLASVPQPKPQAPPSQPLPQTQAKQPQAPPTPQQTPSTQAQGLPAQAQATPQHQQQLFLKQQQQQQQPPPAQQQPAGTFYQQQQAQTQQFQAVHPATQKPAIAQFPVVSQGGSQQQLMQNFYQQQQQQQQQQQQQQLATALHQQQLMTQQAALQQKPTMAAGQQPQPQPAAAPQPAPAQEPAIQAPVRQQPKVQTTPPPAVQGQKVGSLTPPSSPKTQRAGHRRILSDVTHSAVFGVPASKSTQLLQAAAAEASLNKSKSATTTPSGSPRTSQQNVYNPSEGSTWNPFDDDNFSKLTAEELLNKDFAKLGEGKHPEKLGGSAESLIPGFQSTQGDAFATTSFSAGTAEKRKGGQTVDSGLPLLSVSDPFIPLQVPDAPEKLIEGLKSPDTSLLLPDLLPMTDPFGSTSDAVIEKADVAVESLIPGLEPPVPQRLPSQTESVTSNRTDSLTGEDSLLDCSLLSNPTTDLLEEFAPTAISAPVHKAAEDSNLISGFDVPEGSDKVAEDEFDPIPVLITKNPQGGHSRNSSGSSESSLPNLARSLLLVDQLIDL

IC50 [nM]	SMILES
0.7	CC(C)C[C@](C)(N)COc1ccc(-c2ccnc(NC(=O)c3cc(C(C)C)[nH]n3)c2)cc1C(F)(F)F [Example 409, (S)—N-(4-(4-((2-amino-2,4-dimethylpentyl)oxy)-3-(trifluoromethyl)phenyl)pyridin-2-yl)-5-isopropyl-1H-pyrazole-3-carboxamide]
1.2	CC(C)C[C@](C)(N)COc1ccc(-c2ccnc3cc[nH]c23)cc1C(F)(F)F [Example 424, (S)-1-(4-(1H-pyrrolo[3,2-b]pyridin-7-yl)-2-(trifluoromethyl)phenoxy)-2,4-dimethylpentan-2-amine]
1	CC(C)C[C@](C)(N)COc1ccc(-c2ccnc(NC(=O)C3CCCO3)c2)cc1C(F)(F)F (stereo partly drawn) [Example 398, N-(4-(4-(((S)-2-amino-2,4-dimethylpentyl)oxy)-3-(trifluoromethyl)phenyl)pyridin-2-yl)tetrahydrofuran-2-carboxamide]
1	Cc1csc(Nc2nccc(-c3ccc(OC[C@@](C)(N)CC(C)C)c(C#N)c3)n2)n1 [Example 380, (S)-2-((2-amino-2,4-dimethylpentyl)oxy)-5-(2-((4-methylthiazol-2-yl)amino)pyrimidin-4-yl)benzonitrile]
4.5	CC(C)C[C@](C)(N)COc1ccc(-c2ccnc3cc(C(F)(F)F)nn23)cc1C#N [Example 485, (S)-2-((2-amino-2,4-dimethylpentyl)oxy)-5-(2-(trifluoromethyl)pyrazolo[1,5-a]pyrimidin-7-yl)benzonitrile]
0.3	Cc1cc(-c2ccnc(Nc3nccs3)n2)ccc1OC[C@@](C)(N)CC(C)C [Example 368, (S)—N-(4-(4-((2-amino-2,4-dimethylpentyl)oxy)-3-methylphenyl)pyrimidin-2-yl)thiazol-2-amine]
0.5	CC(C)C[C@](C)(N)COc1ccc(-c2ccnc(NC(=O)c3cccs3)c2)cc1C(F)(F)F [Example 403, (S)—N-(4-(4-((2-amino-2,4-dimethylpentyl)oxy)-3-(trifluoromethyl)phenyl)pyridin-2-yl)thiophene-2-carboxamide]
262	CC(C)C[C@](C)(N)COc1ccc(-c2ccnc3cc(C(F)(F)F)nn23)cc1F [Example 335, (S)-1-(2-fluoro-4-(2-(trifluoromethyl)pyrazolo[1,5-a]pyrimidin-7-yl)phenoxy)-2,4-dimethylpentan-2-amine]
36	Cc1nc2c(-c3ccc(OC[C@@](C)(N)CC(C)C)c(Cl)c3)ccnc2[nH]1 [Example 282, (S)-1-(2-chloro-4-(2-methyl-3H-imidazo[4,5-b]pyridin-7-yl)phenoxy)-2,4-dimethylpentan-2-amine]
0.4	CC(C)C[C@](C)(N)COc1ccc(-c2ccnc3[nH]ncc23)cc1C(F)(F)F [Example 292, (S)-1-(4-(1H-pyrazolo[3,4-b]pyridin-4-yl)-2-(trifluoromethyl)phenoxy)-2,4-dimethylpentan-2-amine]
352	CC(C)C[C@](C)(N)COc1ncc(-c2cc(NC3CCOC3)ncn2)cc1Cl (stereo partly drawn) [Example 449, 6-(6-(((S)-2-amino-2,4-dimethylpentyl)oxy)-5-chloropyridin-3-yl)-N-(tetrahydrofuran-3-yl)pyrimidin-4-amine]
14	Cc1nc2c(-c3ccc(OC[C@@](C)(N)CC(C)C)c(C#N)c3)ccnc2[nH]1 [Example 293, (S)-2-((2-amino-2,4-dimethylpentyl)oxy)-5-(2-methyl-3H-imidazo[4,5-b]pyridin-7-yl)benzonitrile]
24	CC(C)C[C@](C)(N)COc1ccc(-c2ncnc3c2ccn3C)cc1C#N [Example 364, (S)-2-((2-amino-2,4-dimethylpentyl)oxy)-5-(7-methyl-7H-pyrrolo[2,3-d]pyrimidin-4-yl)benzonitrile]
11	Cc1cn2nccc(-c3ccc(OC[C@@](C)(N)CC(C)C)c(F)c3)c2n1 [Example 497, (S)-1-(2-fluoro-4-(2-methylimidazo [1,2-b]pyridazin-8-yl)phenoxy)-2,4-dimethylpentan-2-amine]
1370	CC(C)C[C@](C)(N)COc1cnc(-c2ccnc3ccnn23)cc1C#N [Example 486, (S)-5-((2-amino-2,4-dimethylpentyl)oxy)-2-(pyrazolo[1,5-a]pyrimidin-7-yl)isonicotinonitrile]
399	CC(C)C[C@](C)(N)COc1ccc(-c2cc(NC3CCOC3)ncn2)cc1C(F)(F)F (stereo partly drawn) [Example 448, 6-(4-(((S)-2-amino-2,4-dimethylpentyl)oxy)-3-(trifluoromethyl)phenyl)-N-(tetrahydrofuran-3-yl)pyrimidin-4-amine]
765	CC(C)C[C@](C)(N)COc1ccc(-c2ccnc3c2C(=O)N(C)C3)cc1F [Example 413, (S)-4-(4-((2-amino-2,4-dimethylpentyl)oxy)-3-fluorophenyl)-6-methyl-6,7-dihydro-5H-pyrrolo [3,4-b]pyridin-5-one]
42	CC(C)C[C@](C)(N)COc1ccc(-c2ccnc3[nH]c(N)nc23)cc1C(F)(F)F [Example 255, (S)-7-(4-((2-amino-2,4-dimethylpentyl)oxy)-3-(trifluoromethyl)phenyl)-3H-imidazo [4,5-b]pyridin-2-amine]
2.9	CC(C)C[C@](C)(N)COc1ccc(-c2ccnc3ccnn23)cc1F [Example 461, (S)-1-(2-fluoro-4-(pyrazolo [1,5-a]pyrimidin-7-yl)phenoxy)-2,4-dimethylpentan-2-amine]
362	Cc1cc(-c2ccc(OC[C@@](C)(N)CC(C)C)c3ncsc23)ccn1 [Example 267, (S)-2,4-dimethyl-1-((7-(2-methylpyridin-4-yl)benzo[d]thiazol-4-yl)oxy)pentan-2-amine]
0.36	CC(C)C[C@](C)(N)COc1ccc(-c2ccnc(NC(=O)c3nccs3)c2)cc1C#N [Example 261, (S)—N-(4-(4-((2-amino-2,4-dimethylpentyl)oxy)-3-cyanophenyl)pyridin-2-yl)thiazole-2-carboxamide]
7.4	CC(C)C[C@](C)(N)COc1ccc(-c2ccnc(NC3CCCC3)n2)cc1C(F)(F)F [Example 377, (S)-4-(4-((2-amino-2,4-dimethylpentyl)oxy)-3-(trifluoromethyl)phenyl)-N-cyclopentylpyrimidin-2-amine]
0.48	CC(C)C[C@](C)(N)COc1ccc(-c2ccnc(NC(=O)c3nccs3)c2)cc1Cl [Example 260, (S)—N-(4-(4-((2-amino-2,4-dimethylpentyl)oxy)-3-chlorophenyl)pyridin-2-yl)thiazole-2-carboxamide]
278	CC(C)C[C@](C)(N)COc1cc(F)c(-c2ccnc3ccnn23)cc1F [Example 489, (S)-1-(2,5-difluoro-4-(pyrazolo[1,5-a]pyrimidin-7-yl)phenoxy)-2,4-dimethylpentan-2-amine]
4.1	Cc1nc2c(-c3ccc(OC[C@@](C)(N)CC(C)C)c(C#N)c3)ncnc2s1 [Example 271, (S)-2-((2-amino-2,4-dimethylpentyl)oxy)-5-(2-methylthiazolo[5,4-d]pyrimidin-7-yl)benzonitrile]
2.7	CC(C)C[C@](C)(N)COc1ccc(-c2ccnc3cc(C4CC4)nn23)cc1C(F)(F)F [Example 483, (S)-1-(4-(2-Cyclopropylpyrazolo[1,5-a]pyrimidin-7-yl)-2-(trifluoromethyl)phenoxy)-2,4-dimethylpentan-2-amine]
36	CC(C)C[C@](C)(N)COc1ccc(-c2ccnc3c2C(=O)N(C)C3)cc1Cl [Example 429, (S)-4-(4-((2-amino-2,4-dimethylpentyl)oxy)-3-chlorophenyl)-6-methyl-6,7-dihydro-5H-pyrrolo[3,4-b]pyridin-5-one]
1.1	CC(C)C[C@](C)(N)COc1ccc(-c2ccnc(NCc3ccco3)c2)cc1C(F)(F)F [Example 411, (S)-4-(4-((2-amino-2,4-dimethylpentyl)oxy)-3-(trifluoromethyl)phenyl)-N-(furan-2-ylmethyl)pyridin-2-amine]
